Results: ChEMBL document CHEMBL1201862, “PubChem BioAssay data set” (2004)
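Five compound concentrations were applied to cells in 96-well plates for 48 hours; endpoints were derived by simple linear interpolation of the resulting dose-response curve. GI50 = concentration required for 50% inhibition of growth.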 Calls of active or inactive are those of the source. Cut-off read from the data, not from the text of the source: active = GI50 up to about 1.1 µM and inactive = higher.

Legend:
Test in all cases: growth of human tumour cells (NCI), 48 h
[1] = test system: SK-MEL-2
[2] = test system: A498
[3] = test system: TK-10
[4] = test system: OVCAR-8
[5] = test system: OVCAR-3
[6] = test system: RPMI-8226
[7] = test system: SF-295
[8] = test system: UACC-257
[9] = test system: SF-268
[10] = test system: SK-MEL-28
[11] = test system: CAKI-1
[12] = test system: UACC-62
[13] = test system: SNB-19
[14] = test system: 786-0
[15] = test system: KM12
[16] = test system: EKVX
[17] = test system: RXF 393
[18] = test system: SR

Measured: GI50

O=C1C2=C(c3ccccc31)C(c1ccccc1)NC(S)=N2 (stereo not drawn)
inactive: [1] 84.1 µM | [2] > 100 µM | [3] > 100 µM | [4] 35.2 µM | [5] 31.6 µM | [6] 40.6 µM | [7] 31.9 µM | [8] > 100 µM | [9] 30.8 µM | [10] 49.1 µM | [11] 48.8 µM | [12] 29 µM | [13] 38 µM | [14] 27.4 µM | [15] 41.9 µM | [16] > 100 µM

O=c1cc(-c2ccccc2)[nH]c2cc(Cl)cc(Cl)c12
inactive: [1] 46.1 µM | [3] 46.1 µM | [4] 26.1 µM | [6] > 100 µM | [7] 27 µM | [8] > 100 µM | [17] 15.2 µM | [9] 28.4 µM | [10] > 100 µM | [11] 49 µM | [12] 23.2 µM | [14] 22 µM | [15] 5.04 µM | [18] 3.16 µM

O=C(O)C1OC(Oc2cc(O)c3c(=O)cc(-c4ccc(O)cc4)oc3c2)C(O)C(O)C1O (stereo not drawn)
inactive: [1] > 100 µM | [3] > 100 µM | [4] > 100 µM | [5] > 100 µM | [7] > 100 µM | [8] > 100 µM | [9] > 100 µM | [10] > 100 µM | [11] > 100 µM | [13] > 100 µM | [14] 77.3 µM | [15] > 100 µM | [16] > 100 µM

N#CNc1nc(C(=O)Nc2ccc(Cl)cc2)cc(-c2ccccc2)n1
inactive: [1] > 100 µM | [2] > 100 µM | [4] > 100 µM | [5] > 100 µM | [6] > 100 µM | [7] > 100 µM | [8] > 100 µM | [17] > 100 µM | [9] > 100 µM | [10] > 100 µM | [11] > 100 µM | [12] > 100 µM | [13] > 100 µM | [14] > 100 µM | [15] > 100 µM | [16] > 100 µM

Nc1ccc(O)c2c1C(=O)c1c(N)ccc(O)c1C2=O
inactive: [1] > 100 µM | [2] > 100 µM | [3] > 100 µM | [4] > 100 µM | [5] > 100 µM | [6] > 100 µM | [7] > 100 µM | [8] > 100 µM | [17] > 100 µM | [9] > 100 µM | [10] > 100 µM | [11] > 100 µM | [12] > 100 µM | [13] > 100 µM | [14] > 100 µM | [15] > 100 µM | [16] > 100 µM

COc1ccc2nc(-c3cccs3)cc(C(O)CN3CCSCC3)c2c1 (stereo not drawn)
inactive: [1] 17 µM | [3] 31.2 µM | [4] 16.6 µM | [5] 36.8 µM | [6] 10.5 µM | [7] 27.6 µM | [8] 21.2 µM | [17] 45 µM | [9] 27 µM | [10] 24.9 µM | [11] 17.3 µM | [12] 17.7 µM | [13] 29.2 µM | [14] 16.8 µM | [15] 22.3 µM | [16] 29 µM

O=CC[C@H]1C(=O)C[C@@H]2CCC[C@@H]21
inactive: [1] 59.2 µM | [2] > 100 µM | [3] > 100 µM | [4] 43.1 µM | [5] 47.6 µM | [6] 42.4 µM | [7] > 100 µM | [8] > 100 µM | [17] 29.6 µM | [9] 89.1 µM | [10] > 100 µM | [11] > 100 µM | [12] 84.3 µM | [13] > 100 µM | [14] > 100 µM | [15] 51.8 µM | [16] > 100 µM

CCOc1ccccc1/N=N/c1ccc2oc(=O)c(C(C)=O)cc2c1
inactive: [1] 71 µM | [2] > 100 µM | [3] 30.5 µM | [4] > 100 µM | [5] > 100 µM | [6] > 100 µM | [7] 41.4 µM | [8] > 100 µM | [9] > 100 µM | [10] > 100 µM | [11] > 100 µM | [12] > 100 µM | [13] 55.5 µM | [14] 54.6 µM | [15] > 100 µM | [16] 45.9 µM

CN(C)CC(/C(Cc1ccccc1)=N\NC(=S)NN)c1ccccc1 (stereo not drawn)
inactive: [3] > 100 µM | [4] > 100 µM | [5] > 100 µM | [6] > 100 µM | [7] > 100 µM | [8] > 100 µM | [17] > 100 µM | [9] > 100 µM | [10] > 100 µM | [11] > 100 µM | [12] > 100 µM | [13] > 100 µM | [14] > 100 µM | [15] > 100 µM | [18] > 100 µM

COc1cc(O)c2c(c1O)C(=O)c1cc(C)ncc1C2=O
inactive: [1] 22.3 µM | [2] > 50 µM | [3] > 50 µM | [4] 21.8 µM | [5] 16.7 µM | [6] 22.9 µM | [7] 19 µM | [8] 15 µM | [17] 18.5 µM | [9] 19.8 µM | [10] 26.5 µM | [12] 17.3 µM | [13] 21.6 µM | [14] 23 µM | [15] 17.9 µM | [16] 40.5 µM

COC(=O)C1CC(C(=O)OC)c2nc3cc(C)c(C)cc3nc21 (stereo not drawn)
inactive: [1] > 100 µM | [2] > 100 µM | [3] > 100 µM | [4] > 100 µM | [5] > 100 µM | [6] > 100 µM | [7] > 100 µM | [8] > 100 µM | [9] > 100 µM | [10] > 100 µM | [11] > 100 µM | [12] > 100 µM | [13] > 100 µM | [14] > 100 µM | [15] > 100 µM | [16] > 100 µM

Cc1cc(Cl)ccc1NC1=NC(=O)C(CC(=O)Nc2ccc(Cl)cc2Cl)S1 (stereo not drawn)
inactive: [1] > 100 µM | [3] > 100 µM | [4] > 100 µM | [5] > 100 µM | [6] > 100 µM | [7] > 100 µM | [8] > 100 µM | [9] > 100 µM | [10] > 100 µM | [11] > 100 µM | [12] > 100 µM | [13] > 100 µM | [14] > 100 µM | [15] > 100 µM | [16] > 100 µM

C[N+](C)(C)CC1CCCC/C1=N\O (stereo not drawn)
inactive: [1] > 100 µM | [2] > 100 µM | [3] > 100 µM | [4] > 100 µM | [5] > 100 µM | [6] > 100 µM | [7] > 100 µM | [8] > 100 µM | [17] > 100 µM | [9] > 100 µM | [10] > 100 µM | [12] > 100 µM | [13] > 100 µM | [14] > 100 µM | [15] > 100 µM | [16] > 100 µM
